ChEMBL document CHEMBL5465560, “Selectivity Literature for EUbOPEN Chemogenomic Library” (2024)

Experiments:
[1] = target: Mitogen-activated protein kinase 8 (Homo sapiens, UniProt P45983); test: Selectivity interaction (Kinase panel (Z-LYTE Assay)) EUB0001632a MAPK8; settings: at 10 µM
[2] = target: Cyclin-dependent kinase 18 (Homo sapiens) (UniProt Q07002); test: Selectivity interaction (KinomeScan (DiscoverX)) EUB0000666a CDK18; settings: at 10 µM
[3] = target: T1, Rhodopsin kinase GRK7 (Homo sapiens) (UniProt Q8WTQ7); test: Selectivity interaction (KinomeScan (DiscoverX)) EUB0000666a GRK7; settings: at 10 µM
T1 sequence (whole entry): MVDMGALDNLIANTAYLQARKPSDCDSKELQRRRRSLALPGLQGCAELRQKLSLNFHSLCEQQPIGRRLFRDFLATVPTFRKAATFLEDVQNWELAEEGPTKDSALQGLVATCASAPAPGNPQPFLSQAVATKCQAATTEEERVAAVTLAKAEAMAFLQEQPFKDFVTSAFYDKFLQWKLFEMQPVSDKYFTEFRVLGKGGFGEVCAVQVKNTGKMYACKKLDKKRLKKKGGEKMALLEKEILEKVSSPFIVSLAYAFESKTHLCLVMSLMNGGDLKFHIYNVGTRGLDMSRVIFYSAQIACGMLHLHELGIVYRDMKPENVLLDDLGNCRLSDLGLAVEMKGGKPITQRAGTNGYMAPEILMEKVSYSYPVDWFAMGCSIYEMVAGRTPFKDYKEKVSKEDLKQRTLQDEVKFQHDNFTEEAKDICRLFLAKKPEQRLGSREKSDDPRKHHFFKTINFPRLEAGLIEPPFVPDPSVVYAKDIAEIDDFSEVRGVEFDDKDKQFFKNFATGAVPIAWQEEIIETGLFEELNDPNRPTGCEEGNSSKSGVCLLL

[4] = target: Sigma intracellular receptor 2 (Homo sapiens) (UniProt Q5BJF2); test: Selectivity interaction (GPCR panel (PDSP screen)) EUB0000311b TMEM97; settings: at 10 µM
[5] = target: T2, MAP kinase-activated protein kinase 5 (Homo sapiens) (UniProt Q8IW41); test: Selectivity interaction (SelectScreen profiling (Invitrogen)) EUB0000607a MAPKAPK5; settings: at 2 µM
T2 sequence (whole entry): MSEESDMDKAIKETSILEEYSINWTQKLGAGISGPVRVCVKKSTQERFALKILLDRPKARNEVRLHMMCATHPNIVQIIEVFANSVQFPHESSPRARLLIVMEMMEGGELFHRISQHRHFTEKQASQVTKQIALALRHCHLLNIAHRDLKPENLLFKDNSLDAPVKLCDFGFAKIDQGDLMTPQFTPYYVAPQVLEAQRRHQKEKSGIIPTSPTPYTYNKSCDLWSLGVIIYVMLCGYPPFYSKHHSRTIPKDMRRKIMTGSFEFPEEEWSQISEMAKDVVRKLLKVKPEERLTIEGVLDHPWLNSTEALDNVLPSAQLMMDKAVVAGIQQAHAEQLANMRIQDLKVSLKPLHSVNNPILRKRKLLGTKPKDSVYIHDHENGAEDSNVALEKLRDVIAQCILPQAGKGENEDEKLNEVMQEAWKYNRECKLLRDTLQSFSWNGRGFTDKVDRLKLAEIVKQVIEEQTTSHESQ

[6] = target: Ribosomal protein S6 kinase alpha-1 (Homo sapiens, UniProt Q15418); test: Selectivity interaction (ActivX KiNativ screen (kinase selectivity in THP-1 cell lysates)) EUB0000639a RPS6KA1; type: subcellular; settings: lysate, at 0.2 µM
[7] = target: Serine/threonine-protein kinase PRP4 homolog (Homo sapiens) (UniProt Q13523); test: Selectivity interaction (ActivX KiNativ screen (kinase selectivity in THP-1 cell lysates)) EUB0000639a PRPF4; type: subcellular; settings: lysate, at 5 µM
[8] = target: LIM domain kinase 2 (Homo sapiens) (UniProt P53671); test: Selectivity interaction (ProQinase) EUB0000171b LIMK2
[9] = Selectivity interaction (KinomeScan (DiscoverX)) EUB0000695a CDK2H; settings: at 100 nM
[10] = target: Dual specificity mitogen-activated protein kinase kinase 1 (Homo sapiens, UniProt Q02750); test: Selectivity interaction (KinomeScan (DiscoverX)) EUB0000695a MAP2K1; settings: at 100 nM
[11] = target: Phosphatidylinositol 4-phosphate 5-kinase type-1 alpha (Homo sapiens) (UniProt Q99755); settings: at 10 µM
[12] = target: Mitogen-activated protein kinase 10 (Homo sapiens, UniProt P53779); test: Selectivity interaction (KinomeScan (DiscoverX)) EUB0001049a MAPK10; settings: at 1 µM
[13] = target: T3, Aurora kinase A (Homo sapiens) (UniProt O14965); test: Selectivity interaction (Millipore kinase profiler) EUB0000124b STK6; settings: at 10 µM
T3 sequence (whole entry): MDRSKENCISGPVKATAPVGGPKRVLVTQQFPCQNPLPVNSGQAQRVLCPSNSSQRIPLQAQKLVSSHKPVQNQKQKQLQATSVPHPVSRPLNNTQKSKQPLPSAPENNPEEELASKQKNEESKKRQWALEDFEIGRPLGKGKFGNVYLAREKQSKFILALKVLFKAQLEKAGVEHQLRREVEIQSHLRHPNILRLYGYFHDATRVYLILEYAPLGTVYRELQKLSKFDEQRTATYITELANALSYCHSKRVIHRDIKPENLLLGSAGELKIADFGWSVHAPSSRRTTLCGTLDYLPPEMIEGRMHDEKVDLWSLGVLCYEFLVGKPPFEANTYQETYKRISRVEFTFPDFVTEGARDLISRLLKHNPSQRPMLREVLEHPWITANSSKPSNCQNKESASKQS

[14] = target: Phosphorylase b kinase gamma catalytic chain, skeletal muscle/heart isoform (Homo sapiens) (UniProt Q16816); test: Selectivity interaction (Ambit KINOMEscan and KiNATiv profiling in Jurkat cells) EUB0000090b PHKG1; type: cell-based; settings: at 1 µM
[15] = target: Histone-lysine N-methyltransferase SETDB1 (Homo sapiens) (UniProt Q15047); test: Selectivity interaction (Transferase panel (protein, RNA, and DNA methyltransferases. and EP300 (acetyltransferase))) EUB0000270b SETDB1
[16] = target: Mitogen-activated protein kinase kinase kinase 10 (Homo sapiens) (UniProt Q02779); test: Selectivity interaction (KinomeScan (DiscoverX)) EUB0000229b MAP3K10; settings: at 10 µM
[17] = target: Serine/threonine-protein kinase PRP4 homolog (Homo sapiens) (UniProt Q13523); test: Selectivity interaction (KinomeScan (DiscoverX)) EUB0000229b PRPF4B; settings: at 10 µM
[18] = target: Calcium/calmodulin-dependent protein kinase type II subunit delta (Homo sapiens) (UniProt Q13557); settings: at 10 µM
[19] = target: Serine/threonine-protein kinase WNK3 (Homo sapiens) (UniProt Q9BYP7); test: Selectivity interaction (KinomeScan (DiscoverX)) EUB0001619a WNK3; settings: at 1 µM
[20] = target: Serine/threonine-protein kinase SMG1 (Homo sapiens) (UniProt Q96Q15); test: Selectivity interaction (ActivX KiNativ screen (ex vivo kinase selectivity in human PBMCs)) EUB0001619a SMG1; type: cell-based; settings: PBMC, at 1 µM

Chain of Serine/threonine-protein kinase PRP4 homolog (Homo sapiens) (Q13523 whole entry, the tested form may be a part): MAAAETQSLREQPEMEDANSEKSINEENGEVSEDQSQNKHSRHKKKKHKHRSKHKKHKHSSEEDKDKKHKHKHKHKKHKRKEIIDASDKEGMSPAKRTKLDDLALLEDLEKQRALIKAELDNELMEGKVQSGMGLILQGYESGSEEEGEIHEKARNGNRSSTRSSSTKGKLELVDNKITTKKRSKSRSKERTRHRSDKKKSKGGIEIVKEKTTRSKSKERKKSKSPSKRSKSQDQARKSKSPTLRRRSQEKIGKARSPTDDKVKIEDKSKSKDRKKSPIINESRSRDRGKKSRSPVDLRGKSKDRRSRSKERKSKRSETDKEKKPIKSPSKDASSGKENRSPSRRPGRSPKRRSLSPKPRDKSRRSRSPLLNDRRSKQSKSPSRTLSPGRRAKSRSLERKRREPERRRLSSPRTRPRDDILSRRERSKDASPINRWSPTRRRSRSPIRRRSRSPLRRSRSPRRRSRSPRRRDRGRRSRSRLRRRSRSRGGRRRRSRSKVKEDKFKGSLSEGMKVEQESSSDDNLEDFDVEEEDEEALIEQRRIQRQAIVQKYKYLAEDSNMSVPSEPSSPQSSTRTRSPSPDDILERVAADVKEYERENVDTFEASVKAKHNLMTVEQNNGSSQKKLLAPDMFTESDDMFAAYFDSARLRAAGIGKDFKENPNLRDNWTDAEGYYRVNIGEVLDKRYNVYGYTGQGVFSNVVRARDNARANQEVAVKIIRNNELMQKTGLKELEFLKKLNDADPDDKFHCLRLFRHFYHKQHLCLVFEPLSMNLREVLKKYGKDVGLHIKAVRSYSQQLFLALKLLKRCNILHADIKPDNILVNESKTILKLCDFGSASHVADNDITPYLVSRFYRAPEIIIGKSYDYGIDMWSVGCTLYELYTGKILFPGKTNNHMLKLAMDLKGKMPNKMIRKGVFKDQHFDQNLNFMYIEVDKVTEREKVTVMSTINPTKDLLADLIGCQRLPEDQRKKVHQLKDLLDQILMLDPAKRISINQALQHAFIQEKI
Chain of LIM domain kinase 2 (Homo sapiens) (P53671 whole entry, looked up, the tested form may be a part): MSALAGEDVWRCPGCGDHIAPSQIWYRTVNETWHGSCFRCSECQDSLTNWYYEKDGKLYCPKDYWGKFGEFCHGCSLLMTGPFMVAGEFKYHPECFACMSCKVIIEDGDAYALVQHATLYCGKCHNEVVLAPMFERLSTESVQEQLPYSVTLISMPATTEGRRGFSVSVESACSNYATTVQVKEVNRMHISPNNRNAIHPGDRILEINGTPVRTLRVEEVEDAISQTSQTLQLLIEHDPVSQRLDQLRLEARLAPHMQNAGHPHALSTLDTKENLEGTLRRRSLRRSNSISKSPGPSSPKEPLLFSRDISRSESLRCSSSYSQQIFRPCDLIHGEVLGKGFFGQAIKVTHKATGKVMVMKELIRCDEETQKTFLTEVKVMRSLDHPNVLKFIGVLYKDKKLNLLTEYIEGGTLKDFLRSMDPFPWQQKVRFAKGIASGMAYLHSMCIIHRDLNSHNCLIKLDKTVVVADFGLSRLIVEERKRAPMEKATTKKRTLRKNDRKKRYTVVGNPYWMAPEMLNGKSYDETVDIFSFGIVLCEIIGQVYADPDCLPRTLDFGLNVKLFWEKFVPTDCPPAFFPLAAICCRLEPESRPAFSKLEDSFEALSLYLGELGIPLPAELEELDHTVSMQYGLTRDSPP
Chain of Serine/threonine-protein kinase WNK3 (Homo sapiens) (Q9BYP7 whole entry): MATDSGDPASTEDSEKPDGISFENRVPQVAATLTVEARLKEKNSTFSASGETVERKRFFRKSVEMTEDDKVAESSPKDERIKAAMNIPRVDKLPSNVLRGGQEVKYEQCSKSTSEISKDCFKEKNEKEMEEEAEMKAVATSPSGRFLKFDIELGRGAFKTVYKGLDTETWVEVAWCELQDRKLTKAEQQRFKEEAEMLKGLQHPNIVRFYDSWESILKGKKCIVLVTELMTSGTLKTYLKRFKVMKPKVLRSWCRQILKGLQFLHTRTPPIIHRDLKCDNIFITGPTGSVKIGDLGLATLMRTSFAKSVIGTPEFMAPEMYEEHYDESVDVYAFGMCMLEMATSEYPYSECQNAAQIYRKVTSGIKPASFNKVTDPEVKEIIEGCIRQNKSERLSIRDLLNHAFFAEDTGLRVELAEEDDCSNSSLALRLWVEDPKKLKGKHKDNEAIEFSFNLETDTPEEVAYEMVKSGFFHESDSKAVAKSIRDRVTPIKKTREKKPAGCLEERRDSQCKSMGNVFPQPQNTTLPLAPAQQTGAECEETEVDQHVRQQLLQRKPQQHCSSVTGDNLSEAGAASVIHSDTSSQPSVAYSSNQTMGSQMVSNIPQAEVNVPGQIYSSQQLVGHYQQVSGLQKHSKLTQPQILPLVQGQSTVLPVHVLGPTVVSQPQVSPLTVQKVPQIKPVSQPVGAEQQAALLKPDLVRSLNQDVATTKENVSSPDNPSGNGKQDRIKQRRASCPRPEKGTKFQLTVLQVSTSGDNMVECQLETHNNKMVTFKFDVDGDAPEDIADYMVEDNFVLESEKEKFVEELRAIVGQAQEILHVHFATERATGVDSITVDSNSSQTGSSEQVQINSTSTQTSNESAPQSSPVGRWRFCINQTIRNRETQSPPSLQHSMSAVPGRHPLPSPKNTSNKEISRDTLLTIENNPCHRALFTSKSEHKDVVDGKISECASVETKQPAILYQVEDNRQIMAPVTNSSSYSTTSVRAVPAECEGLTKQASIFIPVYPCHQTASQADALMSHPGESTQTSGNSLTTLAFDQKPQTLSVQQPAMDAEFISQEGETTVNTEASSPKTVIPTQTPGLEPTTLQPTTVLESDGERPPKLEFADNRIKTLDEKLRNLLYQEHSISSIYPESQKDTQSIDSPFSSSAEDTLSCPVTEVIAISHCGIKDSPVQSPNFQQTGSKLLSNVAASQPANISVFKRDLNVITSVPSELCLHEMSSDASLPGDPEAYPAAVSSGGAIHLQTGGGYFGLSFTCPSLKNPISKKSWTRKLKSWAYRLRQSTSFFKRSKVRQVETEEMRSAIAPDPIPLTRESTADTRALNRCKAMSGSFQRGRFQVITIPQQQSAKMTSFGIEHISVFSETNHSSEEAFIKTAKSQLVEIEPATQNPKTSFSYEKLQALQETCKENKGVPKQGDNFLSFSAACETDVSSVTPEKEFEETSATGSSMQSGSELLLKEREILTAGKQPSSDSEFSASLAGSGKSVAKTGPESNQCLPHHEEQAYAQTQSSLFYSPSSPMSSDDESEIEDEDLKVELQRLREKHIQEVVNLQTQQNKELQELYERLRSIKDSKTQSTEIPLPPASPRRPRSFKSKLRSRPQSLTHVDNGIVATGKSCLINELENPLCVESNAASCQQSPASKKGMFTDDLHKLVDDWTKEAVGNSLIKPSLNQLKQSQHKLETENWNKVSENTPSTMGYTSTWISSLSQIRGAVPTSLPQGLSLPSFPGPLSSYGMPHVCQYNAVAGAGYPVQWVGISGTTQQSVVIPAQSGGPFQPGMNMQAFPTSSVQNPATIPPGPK
Chain of Phosphorylase b kinase gamma catalytic chain, skeletal muscle/heart isoform (Homo sapiens) (Q16816 whole entry, looked up, canonical isoform): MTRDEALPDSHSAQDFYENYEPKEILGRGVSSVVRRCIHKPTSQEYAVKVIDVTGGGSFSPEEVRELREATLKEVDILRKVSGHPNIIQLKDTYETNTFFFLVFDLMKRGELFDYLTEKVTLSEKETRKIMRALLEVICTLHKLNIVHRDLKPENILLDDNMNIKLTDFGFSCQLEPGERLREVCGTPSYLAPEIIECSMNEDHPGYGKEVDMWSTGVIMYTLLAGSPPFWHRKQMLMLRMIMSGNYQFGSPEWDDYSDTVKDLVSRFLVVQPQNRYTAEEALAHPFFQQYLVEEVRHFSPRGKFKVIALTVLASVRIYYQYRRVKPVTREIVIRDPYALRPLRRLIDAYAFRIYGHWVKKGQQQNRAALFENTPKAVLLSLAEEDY
Chain of Mitogen-activated protein kinase 10 (P53779 whole entry): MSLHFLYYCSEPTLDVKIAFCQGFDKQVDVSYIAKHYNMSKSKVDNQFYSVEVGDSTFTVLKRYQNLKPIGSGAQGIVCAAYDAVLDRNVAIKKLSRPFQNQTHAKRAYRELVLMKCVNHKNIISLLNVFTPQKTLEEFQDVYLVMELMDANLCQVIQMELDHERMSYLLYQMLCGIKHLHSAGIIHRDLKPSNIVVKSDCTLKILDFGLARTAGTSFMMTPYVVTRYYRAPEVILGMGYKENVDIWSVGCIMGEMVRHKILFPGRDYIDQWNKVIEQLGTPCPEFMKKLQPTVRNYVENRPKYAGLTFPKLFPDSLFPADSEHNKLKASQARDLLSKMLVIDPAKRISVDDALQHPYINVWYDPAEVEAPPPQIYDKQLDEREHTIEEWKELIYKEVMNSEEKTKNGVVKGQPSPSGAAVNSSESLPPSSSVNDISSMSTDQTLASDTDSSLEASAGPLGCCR
Chain of Sigma intracellular receptor 2 (Homo sapiens) (Q5BJF2 whole entry): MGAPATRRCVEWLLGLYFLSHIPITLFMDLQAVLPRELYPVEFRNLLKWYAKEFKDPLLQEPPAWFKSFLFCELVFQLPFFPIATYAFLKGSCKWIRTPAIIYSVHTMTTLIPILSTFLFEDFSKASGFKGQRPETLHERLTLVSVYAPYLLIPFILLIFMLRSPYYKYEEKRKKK
Chain of Cyclin-dependent kinase 18 (Homo sapiens) (Q07002 whole entry): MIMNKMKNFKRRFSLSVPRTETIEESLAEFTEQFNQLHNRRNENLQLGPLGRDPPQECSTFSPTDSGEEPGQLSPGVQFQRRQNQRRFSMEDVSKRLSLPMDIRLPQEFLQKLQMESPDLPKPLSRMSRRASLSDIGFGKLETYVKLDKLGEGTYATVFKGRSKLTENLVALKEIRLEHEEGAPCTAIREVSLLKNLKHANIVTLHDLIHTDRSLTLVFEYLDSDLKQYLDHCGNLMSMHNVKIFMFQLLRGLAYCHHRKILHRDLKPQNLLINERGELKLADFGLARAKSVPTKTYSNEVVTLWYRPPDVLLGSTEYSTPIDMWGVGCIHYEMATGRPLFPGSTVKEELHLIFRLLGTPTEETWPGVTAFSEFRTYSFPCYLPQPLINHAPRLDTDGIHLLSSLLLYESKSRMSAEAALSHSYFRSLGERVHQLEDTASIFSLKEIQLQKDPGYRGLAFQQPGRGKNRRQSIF

Cn1cc(-n2cnc3c(NCc4nc5cc(Cl)c(Cl)cc5[nH]4)nc(N4CCOCC4)nc32)cn1
% of control [1]: -4.21%

O=C(NOC[C@H](O)CO)c1ccc(F)c(F)c1Nc1ccc(I)cc1F
% of control [2]: 100% | % of control [3]: 100%

CCc1ccccc1C(=O)Nc1n[nH]c2c(C)c(F)c(C3C(C#N)=C(C)N(C)C(C)=C3C#N)cc12 [BAY-3827]
% of inhibition [4]: 78.3%

CNC(=O)Nc1ccc(-c2nc(N3CC4CCC(C3)O4)c3cnn(C4CCC5(CC4)OCCO5)c3n2)cc1
% of inhibition [5]: 5%

CC[C@@H]1[C@H](F)C(=O)N[C@@H]1COc1nccc2cc(C(N)=O)c(OC)cc12 [ZIMLOVISERTIB]
% of inhibition [6]: -12.2% | % of inhibition [7]: 88.3%

C=CC(=O)Nc1cccc(C(=O)Nc2ccc(Nc3cc(-c4[nH]c(SC)nc4C)ccn3)cc2)c1
% of control ([8]; at 1 µM): 90% | % of control ([8]; at 5 µM): 80%

Cc1cc(F)c(C(=O)Nc2cccc(-c3nncn3C(C)C)n2)cc1-n1cnc(C2CC2)c1
% of control [9]: 92% | % of control [10]: 100%

COCC(=O)NC/C=C/c1ccc2ncnc(Nc3ccc(Oc4ccc(C)nc4)c(C)c3)c2c1 [CP-724714]
% of control [11]: 88%

COc1cc(Nc2nc(C)cc(-c3cnn4nc(OC)ccc34)n2)cc(C(F)(F)F)c1
% of control [12]: 77%

CC(=O)Nc1cccc(-n2c(=O)n(C3CC3)c(=O)c3c(Nc4ccc(I)cc4F)n(C)c(=O)c(C)c32)c1
% of control [13]: 124%

CN(C)C/C=C/C(=O)Nc1ccc(C(=O)N2CCCC(Nc3ncc(Cl)c(-c4c[nH]c5ccccc45)n3)C2)cc1 (configuration not stated)
% of control [14]: 87%

Cc1cc(CN)cc(C)c1-c1ncn(C)c1-c1cncn1C
% activity ([15]; at 1 µM): > 90% | % activity ([15]; at 10 µM): > 80%

COc1cc(N(C)c2ccnc3ccc(C(F)(F)F)cc23)cc(OC)c1OC
% binding [16]: 100% | % binding [17]: 100%

Cc1cc([C@@H](C)Nc2ccccc2C(=O)O)c2nc(N3CCOCC3)cc(=O)n2c1 [AZD-6482]
% of control [18]: 95%

N#Cc1cccc(-c2c[nH]c3ncnc(N4CCOCC4)c23)c1
% of control [19]: 100% | % of inhibition [20]: 13%
